Common to all, as to format: physicochemical
Series [1] is described as follows: In vitro performance DPI 2 vs MEDTONE delivery system, laser diffraction and emitted mass (Example 7). The following applies: fill weight 10 mg, 4 kPa.
From the text: This system includes dry powder formulations, pre-metered into single-use cartridges and inserted into a high resistance, breath-powered, re-usable MEDTONE(R) inhaler. […] In vitro powder performance for these systems was compared for various parameter of inhaler performance. For DPI 2 a single discharge per cartridge was used as compared to two discharges per cartridge in the MEDTONE(R) system.
Particle sizing by laser diffraction and quantification of emitted mass as described above were used in these experiments. A laser diffraction instrument (Sympatec HELOS) was adapted with a novel pressurized inhaler chamber to facilitate analysis of powder plumes. MTDS cartridges were discharged twice per determination versus once with DPI 2.
The nature of series [2]: Powder flowability (Hausner ratio, compressibility index, angle of repose, critical orifice testing). The source says: The compressibility index (Cl) can be calculated from the Hausner ratio (HR) as C1 = 100 × (1−(1/HR)). [formula]
FDKP microparticles either unmodified or containing a drug, for example insulin, constitute highly cohesive powders.

The nature of series [3]: Geometric particle size of emitted formulations by VMGD, laser diffraction (Example 6). The following applies: 56 % trans. The source says: Laser diffraction of dry powder formulations emitted from dry powder inhalers is a common methodology employed to characterize the level of de-agglomeration subjected to a powder. The methodology indicates a measure of geometric size rather than aerodynamic size as occurring in industry standard impaction methodologies. Typically, the geometric size of the emitted powder includes a volumetric distribution characterized by the median particle size, VMGD. Importantly, geometric sizes of the emitted particles are discerned with heightened resolution as compared to the aerodynamic sizes provided by impaction methods. Smaller sizes are preferred and result in greater likelihood of individual particles being delivered to the pulmonary tract. Thus, differences in inhaler de-agglomeration and ultimate performance can be easier to resolve with diffraction. In these experiments, an inhaler as specified in Example 3 and a predicate inhaler are tested with laser diffraction at pressures analogous to actual patient inspiratory capacities to determine the effectiveness of the inhalation system to de-agglomerate powder formulations. […] Reported in Table 5 are a VMGD and an efficiency of the container emptying during the testing. […]

Setting [4] is: DPI 2, single discharge, 15 cartridges.
[5] abbreviates: MEDTONE® (MTDS), two discharges, 30 cartridges.

As for `O=C(O)/C=C/C(=O)NCCCCC1NC(=O)C(CCCCNC(=O)/C=C/C(=O)O)NC1=O` (stereo not shown) [FDKP, bis-3,6-(N-fumaryl-4-aminobutyl)-2,5-diketopiperazine], the “Ave. Geometric SD” value in series [1] (setting [4]) is reported as 3.79 µm; in series [1] (setting [5]) it was 2.94 µm. Also, the “Ave. VMGD” value is on record as 6.84 µm in series [1] (setting [4]) and 21.21 µm in series [1] (setting [5]). Moreover, the angle of repose in series [2] is 40 °. Besides, the VMGD in series [3] (DPI 2, SSA 55 m2/g, pressure drop 4 kPa) worked out at 6.800 micron; in series [3] (MEDTONE®, SSA 55, 4 kPa), 21.200 micron.

These data come from patent EP2403490B1, “AN IMPROVED DRY POWDER DRUG DELIVERY SYSTEM” (MannKind Corporation, priority 2009, dated 2010).
